In brackets after ≈: the same amount, converted by molar mass. Read-outs that look alike come from different tables or passages of the source.
Experiments:
[1] = target: Mtb Pks13-TE domain (wild-type) (Mycobacterium tuberculosis, UniProt I6X8D2); experiment: biochemical; format: biochemical
Mtb strain mc^27000 = experiment: microbe, parasite or virus in culture; format: cell-based, Mycobacterium tuberculosis
[2] = tested on: human dermal fibroblast (HDF) cells; conditions: for Survival vs. Control: HDF cell survival relative to DMSO-only control at the first (or only) Non-Toxic Concentration value; for Non-Toxic Concentration: human, 48 h
[3] = Pks13-TE, 20 μM 4-MUH, read-out: IC50
[4] = Pks13 enzyme inhibition, read-out: Pks13 IC50
[5] = Mycobacterium tuberculosis, Mtb mc^27000, liquid medium, 96-well plates, read-out: MIC
[6] = Mycobacterium tuberculosis, read-out: Pks13 MIC
[7] = Mycobacterium tuberculosis, […], mean ± s.d. of triplicates, NI: no inhibition, read-out: MIC
[8] = Mtb Pks13-TE domain, mean ± s.d. of triplicates, read-out: IC50
[9] = Mtb mc^27000, liquid medium, 96-well plates, read-out: MIC
[10] = Mycobacterium tuberculosis, read-out: percentage inhibition observed (incomplete inhibition)

Sequence of Mtb Pks13-TE domain (wild-type) (I6X8D2 1451-1733): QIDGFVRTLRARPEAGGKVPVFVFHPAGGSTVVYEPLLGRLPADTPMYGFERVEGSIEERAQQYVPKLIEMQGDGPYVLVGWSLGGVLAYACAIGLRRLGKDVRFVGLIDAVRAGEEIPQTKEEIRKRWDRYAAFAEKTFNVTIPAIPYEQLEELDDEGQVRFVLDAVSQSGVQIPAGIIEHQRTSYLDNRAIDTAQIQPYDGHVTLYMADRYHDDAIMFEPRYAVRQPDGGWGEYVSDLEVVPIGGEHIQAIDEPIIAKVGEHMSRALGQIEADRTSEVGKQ

| Structure (SMILES) | IC50 [1, 3] [µM] | IC50 [1, 4] [µM] | MIC (Mtb strain mc^27000; [5]) [µM] | MIC (Mtb strain mc^27000; [6]) [µM] | Survival vs. Control [2] [%] | Non-Toxic Concentration [2] [µM] | further results |
| --- | --- | --- | --- | --- | --- | --- | --- |
| CCOC(=O)c1c(-c2ccccc2)oc2cc(OC)cc(CNC(C)C)c12 [compound 72] | > 10 | > 10 | 7.4 (≈ 2.72 µg/mL) | 7.4 (≈ 2.72 µg/mL) | 91 | 3.125 | – |
| CC(=O)NCCNC(=O)c1c(-c2ccccc2)oc2ccc(O)c(CN3CCCCC3)c12 [compound 44] | 0.5 | 0.5 | > 40 | > 40 | 104 | 50 | – |
| CCOC(=O)c1c(-c2ccccc2)oc2ccc(O)c(CCN3CCCC3)c12 [compound 102] | 2.5 | 0.7 | 0.7 (≈ 0.266 µg/mL) | – | 91 | 1.56 | – |
| CCOC(=O)c1c(-c2ccccc2)oc2cc(O)cc(CN3CCC(NC(C)=O)CC3)c12 [compound 70] | 6.1 | 6.1 | > 40 | > 40 | 91 | 50 | – |
| O=C(c1c(-c2ccccc2)oc2ccc(O)c(CN3CCCCC3)c12)N1CCNCC1 [compound 41] | 0.44 | 0.74 | 20 (≈ 8.39 µg/mL) | 3.1 (≈ 1.3 µg/mL) | 100 | 100 | – |
| CCOC(=O)c1c(-c2ccccc2)oc2cc(O)cc(CN3CCCCC3)c12 [compound 38] | – | 0.45 | 6.7 (≈ 2.54 µg/mL) | 6.7 (≈ 2.54 µg/mL) | 111 | 100 | – |
| CC(C)(C)OC(=O)N1CCN(C(=O)c2c(-c3ccccc3)oc3ccc(O)c(CN4CCCCC4)c23)CC1 [compound 39] | 0.66 | 0.66 | 2.1 (≈ 1.09 µg/mL) | 2.1 (≈ 1.09 µg/mL) | 101 | 100 | – |
| CCOC(=O)c1c(-c2ccc(O)nc2)oc2ccc(O)c(CN3CCCCC3)c12 [compound 58] | – | 0.36 | 4 (≈ 1.59 µg/mL) | 4 (≈ 1.59 µg/mL) | 95 | 50 | – |
| CCOC(=O)c1c(-c2ccccc2)oc2ccc(O)c(CN3CCCCC3)c12 [compound 13] | 0.3 | 0.26 | 0.4 (≈ 0.152 µg/mL) | 0.4 (≈ 0.152 µg/mL) | 105 | 50 | MIC (Mtb strain mc^27000; [7]): 0.4 µM (≈ 0.152 µg/mL); growth inhibition in HDF cells relative to DMSO only control [2]: did not show any growth inhibition |
| CCOC(=O)c1c(-c2ccc(F)cc2)oc2cc(O)cc(CCNC(C)C)c12 [compound 73] | 2.1 | 1.5 to 2.1 | 2.5 (≈ 0.964 µg/mL) | 2.5 (≈ 0.964 µg/mL) | 97 | 12.5 | – |
| CCOC(=O)c1c(-c2ccccc2)oc2ccc(O)c(CN3CCCCCC3)c12 [compound 4] | 0.28 ± 0.03 | – | 4.6 ± 0.3 (≈ 1.81 µg/mL) | – | – | – | IC50 [1, 8]: 0.28 ± 0.03 µM; higher MIC compared to the test compound (Mtb strain mc^27000): ~2 fold; MIC (Mtb strain mc^27000; [7]): 4.6 ± 0.03 µM (≈ 1.81 µg/mL); growth inhibition in HDF cells relative to DMSO only control [2]: did not show any growth inhibition |
| CNC(=O)c1c(-c2ccc(O)c(F)c2)oc2ccc(O)c(CN3CCCCC3)c12 [compound 61] | – | 0.33 | 0.5 (≈ 0.199 µg/mL) | 0.5 (≈ 0.199 µg/mL) | 94 | 50 | – |
| CCOC(=O)c1c(-c2cc(F)c(O)c(F)c2)oc2ccc(O)c(CN3CCCCC3)c12 [compound 63] | 0.5 | 0.5 | 7 (≈ 3.02 µg/mL) | 7 (≈ 3.02 µg/mL) | 99 | 25 | – |
| CCOC(=O)c1c(-c2ccc(C#N)cc2)oc2ccc(O)c(CN3CCCCC3)c12 [compound 62] | 0.27 | 0.27 | 1.5 (≈ 0.607 µg/mL) | 1.5 (≈ 0.607 µg/mL) | 90 | 6.25 | – |
| CNC(=O)c1c(-c2ccc(O)cc2)oc2ccc(O)c(CN3CCC(CO)C3)c12 (centres unmarked) [compound 122] | 0.51 | – | 1 (≈ 0.396 µg/mL) | – | – | – | – |
| CCOC(=O)c1c(-c2ccc(F)cc2)oc2ccc(O)c(CN3CCCCC3)c12 [compound 25] | 0.35 | – | – | – | – | – | MIC (Mtb strain mc^27000; [9]): 1.5 µM (≈ 0.596 µg/mL) |
| CCOC(=O)c1c(-c2ccccc2)oc2cccc(CN3CCCCC3)c12 [compound 24] | 2 | – | – | – | – | – | IC50 [1, 8]: 2 ± 0.1 µM; loss / decrease in inhibitory activity compared to compound I ([1]; relative to compound I): ~7 fold; MIC (Mtb strain mc^27000; [9]): 16 µM (≈ 5.82 µg/mL); MIC (Mtb strain mc^27000; […], mean ± s.d. of triplicates, NI: no inhibition, read-out: MIC): 16 µM (≈ 5.82 µg/mL) |
| NC(=O)c1c(-c2ccc(O)cc2)oc2ccc(O)c(CN3CCCCC3)c12 [compound 125] | 0.17 | – | 1.3 (≈ 0.476 µg/mL) | – | – | – | – |
| COC(=O)c1c(-c2ccccc2)oc2ccc(O)c(CCCN3CCCC3)c12 [compound 104] | 2 | – | 1.8 (≈ 0.683 µg/mL) | – | – | – | – |

| Structure (SMILES) | IC50 [1, 3] [µM] | IC50 [1, 4] [µM] | MIC (Mtb strain mc^27000; [5]) [µM] | MIC (Mtb strain mc^27000; [6]) [µM] | Survival vs. Control [2] [%] | Non-Toxic Concentration [2] [µM] | further results |
| --- | --- | --- | --- | --- | --- | --- | --- |
| CCOC(=O)c1c(-c2ccccc2)oc2cc(O)cc(CCN)c12 [compound 136] | > 20 | – | – | – | – | – | MIC (Mtb strain mc^27000; [9]): 4 µM (≈ 1.3 µg/mL) |
| CCOC(=O)c1c(-c2ccc(F)cc2)oc2cc(O)cc(CCNS(C)(=O)=O)c12 [compound 74] | – | 20 | – | – | 88 | 25 | – |
| CCOC(=O)c1c(-c2ccccc2)oc2ccc(O)c(CN3CCC(N4CCCCC4)CC3)c12 [compound 98] | > 20 | – | – | – | – | – | inhibition at 20 µM (Mtb strain mc^27000; [10]): 40% |
| CCOC(=O)c1c(-c2ccccc2)oc2ccc(O)c(CN3CCCC(CO)C3)c12 (centres unmarked) [compound 132] | 0.42 | – | – | – | – | – | MIC (Mtb strain mc^27000; [9]): 10 µM (≈ 4.09 µg/mL) |
| CNC(=O)c1c(-c2ccccc2)oc2cc(OCCN)cc(CN3CCCCC3)c12 [compound 91] | 10 | – | – | – | – | – | inhibition at 40 µM (Mtb strain mc^27000; Mycobacterium tuberculosis, at 40 μM, read-out: percentage inhibition observed (incomplete inhibition)): 34% |
| CCOC(=O)c1c(-c2ccc(F)cc2)oc2cc(O)cc(CCNC(C)CO)c12 (centres unmarked) [compound 77] | 6 | – | 3.3 (≈ 1.32 µg/mL) | – | – | – | – |
| CC(C)N1Cc2cc(O)cc3oc(-c4ccccc4)c(c23)C1=O [compound 71] | 9 | – | > 20 | – | – | – | – |
| CCOC(=O)c1c(-c2ccccc2)oc2ccc(O)c(C)c12 [compound 12] | > 20 | – | 20 (≈ 5.93 µg/mL) | – | – | – | – |
| CCOC(=O)/C=C/CC1CCN(CCCc2c(O)ccc3oc(-c4ccccc4)c(C(=O)OCC)c23)C1 (centres unmarked) [compound 171] | 0.5 | – | 2.7 (≈ 1.37 µg/mL) | – | – | – | – |
| CCOC(=O)c1c(-c2ccc(F)cc2)oc2cc(O)cc(CN3CCCCC3)c12 [compound 51] | 0.8 | – | – | – | – | – | MIC (Mtb strain mc^27000; [9]): >30 µM |
| CCOC(=O)c1c(-c2ccc(O)cc2)oc2ccc(O)c(CN3CCCC(CO)C3)c12 (centres unmarked) [compound 134] | 0.4 | – | 2.5 (≈ 1.06 µg/mL) | – | – | – | – |
| CNC(=O)c1c(-c2ccnc(OC)c2)oc2cc(OC)cc(CN3CCCCC3)c12 [compound 86] | > 20 | – | > 20 | – | – | – | – |
| CNC(=O)c1c(-c2ccc(O)cc2)oc2ccc(O)c(CN3CCCC(CO)C3)c12 (centres unmarked) [compound 127] | 1.1 | – | 5 (≈ 2.05 µg/mL) | – | – | – | – |
| OCc1c(-c2ccccc2)oc2ccc(O)c(CN3CCC(N4CCCCC4)CC3)c12 [compound 99] | – | – | – | – | – | – | IC50 ([1]; Pks13-TE, read-out: IC50 (μM), given as NB / NI): > 20 µM; inhibition at 20 µM (Mtb strain mc^27000; [10]): 28% |
| CCOC(=O)c1c(-c2ccccc2)oc2ccc(O)c(CCCN3CCC(CO)CC3)c12 [compound 166] | 0.5 | – | 6.1 (≈ 2.67 µg/mL) | – | – | – | – |
| CCOC(=O)c1c(-c2ccccc2)oc2cc([N+](=O)[O-])c(O)c(CN3CCCCC3)c12 [compound 26] | 1.3 | – | 5.4 (≈ 2.29 µg/mL) | – | – | – | – |
| COC(=O)n1c(-c2ccccc2)c(Br)c2cccc(CN3CCCCC3)c21 [compound 108] | 2 | – | – | – | – | – | inhibition at 20 µM (Mtb strain mc^27000; [10]): 26% |
| CNC(=O)c1c(-c2ccc(O)cc2)oc2ccc(O)c(CN3CCC(CO)CC3)c12 [compound 121] | 0.6 | – | 40 (≈ 16.4 µg/mL) | – | – | – | – |
| CCOC(=O)c1c(-c2ccc(C(N)=O)cc2)oc2ccc(O)c(CN3CCCCC3)c12 [compound 60] | 0.3 | – | 3.5 (≈ 1.48 µg/mL) | – | – | – | – |

— patent US20180111913A1, “SUBSTITUTED BENZOFURAN DERIVATIVES AS NOVEL ANTIMYCOBACTERIAL AGENTS” (priority 2015, published 2018)
